In the experiment the test system is apyrase. Description: Screen for apyrase inhibitors (Method 1, in vitro phosphate-release absorbance assay). The class given is biochemical. Conditions: inhibitor conc at 1 mM stock, 1 hr room temperature, absorbance 630 nm; rounded average of two assay results. The essentials: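 Phosphate-release colorimetric assay (Windsor method) in 60 mM Hepes, 3 mM MgCl2, 3 mM CaCl2, 3 mM ATP, pH 6.5, with compound or DMSO control added. Released phosphate developed with ammonium molybdate and ascorbic acid/TCA, then stopped with citrate/acetic acid.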
In the case of `COc1ccccc1N(C)S(=O)(=O)c1ccc(C(=O)N2CCCSc3ccccc32)cc1` [I-878, N-(2-methoxyphenyl)-N-methyl-4-(2,3,4,5-tetrahydrobenzo[b][1,4]thiazepine-5-carbonyl)benzenesulfonamide], the “% Inhibition of Apyrase” value is 54%.

For `O=C(Nc1cccc(S(=O)(=O)Nc2ccc(Br)cc2)c1)c1ccsc1` [I-207, N-(3-(N-(4-bromophenyl)sulfamoyl)phenyl)thiophene-3-carboxamide], the “% Inhibition of Apyrase” value was determined as 74%. As for `CCN(CC)S(=O)(=O)c1cccc(NC(=O)c2ccc(S(=O)(=O)N3CCCc4ccccc43)cc2)c1` [I-868, N-(3-(N,N-diethylsulfamoyl)phenyl)-4-((3,4-dihydroquinolin-1(2H)-yl)sulfonyl)benzamide], the figure is 58%; as for `O=C(Nc1ccc(OC(F)F)c(Cl)c1)c1cccc(S(=O)(=O)Nc2ccc3c(c2)OCO3)c1` [I-181, 3-(N-(benzo[d][1,3]dioxol-5-yl)sulfamoyl)-N-(3-chloro-4-(difluoromethoxy)phenyl)benzamide], 77%; as for `O=C(c1cccc(S(=O)(=O)N2CCCc3ccccc32)c1)N1CCc2ccccc21` [I-485, (3-((3,4-dihydroquinolin-1(2H)-yl)sulfonyl)phenyl)(indolin-1-yl)methanone], 58%.

Consider `O=C(Nc1ccccn1)c1cccc(S(=O)(=O)Nc2cccc(Cl)c2)c1` [I-615, 3-(N-(3-chlorophenyl)sulfamoyl)-N-(pyridin-2-yl)benzamide], for which the “% Inhibition of Apyrase” value is reported as 1%. Next, `Cc1cccc(NS(=O)(=O)c2ccc(C(=O)Nc3cccc(C#N)c3)cc2)c1C` [I-206, N-(3-cyanophenyl)-4-(N-(2,3-dimethylphenyl)sulfamoyl)benzamide]: 74%; `Cc1ccc(S(=O)(=O)Nc2ccccc2F)cc1C(=O)Nc1ccc(F)cc1F` [I-611, N-(2,4-difluorophenyl)-5-(N-(2-fluorophenyl)sulfamoyl)-2-methylbenzamide]: 4%; `COc1ccc(N(C)S(=O)(=O)c2cccc(C(=O)Nc3ccc4c(c3)OCO4)c2)cc1` [I-479, N-(benzo[d][1,3]dioxol-5-yl)-3-(N-(4-methoxyphenyl)-N-methylsulfamoyl)benzamide]: 58%.

On to `Cc1cc(C(=O)Nc2cccc(S(=O)(=O)N(C)c3ccccc3)c2)on1` [I-748, 3-methyl-N-(3-(N-methyl-N-phenylsulfamoyl)phenyl)isoxazole-5-carboxamide], for which the “% Inhibition of Apyrase” value came to 42%. As for `CCOc1ccc(NS(=O)(=O)c2cccc(C(=O)N3CCCc4ccccc43)c2)cc1` [I-568, N-(4-ethoxyphenyl)-3-(1,2,3,4-tetrahydroquinoline-1-carbonyl)benzenesulfonamide], the figure is 51%; as for `O=C(Nc1ccc(N2CCOCC2)cc1)c1cccc(S(=O)(=O)Nc2ccc(Br)cc2)c1` [I-255, 3-(N-(4-bromophenyl)sulfamoyl)-N-(4-morpholinophenyl)benzamide], 61%. Consider `Cc1ccc(F)c(NC(=O)c2cccc(S(=O)(=O)Nc3ccc4c(c3)OCO4)c2)c1` [I-252, 3-(N-(benzo[d][1,3]dioxol-5-yl)sulfamoyl)-N-(2-fluoro-5-methylphenyl)benzamide], for which the “% Inhibition of Apyrase” value came out at 62%. On to `O=C(Nc1ccc(F)cc1Cl)c1ccc(S(=O)(=O)Nc2ccc(SC(F)F)cc2)cc1` [I-380, N-(2-chloro-4-fluorophenyl)-4-(N-(4-((difluoromethyl)thio)phenyl)sulfamoyl) benzamide], for which the “% Inhibition of Apyrase” value was 73%.

On to `Cc1cccc(NC(=O)c2cccc(S(=O)(=O)N3CCc4ccccc43)c2)c1` [I-214, 3-(indolin-1-ylsulfonyl)-N-(m-tolyl)benzamide], for which the “% Inhibition of Apyrase” value is 71%. Next, `CC1Cc2ccccc2N1C(=O)c1cccc(S(=O)(=O)N(C)c2cccc(Cl)c2)c1` (centres unmarked) [I-464, N-(3-chlorophenyl)-N-methyl-3-(2-methylindoline-1-carbonyl)benzenesulfonamide]: 59%; `O=C(Nc1ccccc1NS(=O)(=O)c1ccc(F)cc1)c1cccc(S(=O)(=O)C(F)(F)F)c1` [I-833, N-(2-((4-fluorophenyl)sulfonamido)phenyl)-3-((trifluoromethyl)sulfonyl)benzamide]: 58%. Next, `N#Cc1cccc(NC(=O)c2cccc(S(=O)(=O)Nc3cc(C(F)(F)F)ccc3Cl)c2)c1` [I-532, 3-(N-(2-chloro-5-(trifluoromethyl)phenyl)sulfamoyl)-N-(3-cyanophenyl)benzamide]: 55%. With `Cc1ccc(C(=O)Nc2cccc(NS(=O)(=O)c3ccccc3)c2)cc1[N+](=O)[O-]` [I-347, 4-methyl-3-nitro-N-(3-(phenylsulfonamido)phenyl)benzamide], the “% Inhibition of Apyrase” value came to 52%. Take `COc1ccc(S(=O)(=O)N2CCc3ccccc32)cc1C(=O)Nc1ccc2c(c1)OCCO2` [I-577, N-(2,3-dihydrobenzo[b][1,4]dioxin-6-yl)-5-(indolin-1-ylsulfonyl)-2-methoxybenzamide]: the “% Inhibition of Apyrase” value turned out to be 48%. For `O=C(Nc1cnccn1)c1cccc(NS(=O)(=O)c2c(F)cccc2F)c1` [I-659, 3-((2,6-difluorophenyl)sulfonamido)-N-(pyrazin-2-yl)benzamide], the “% Inhibition of Apyrase” value is on record as 31%. Next, `Cc1ccc(NC(=O)c2ccc(Cl)c(S(=O)(=O)N3CCc4ccccc43)c2)cc1` [I-453, 4-chloro-3-(indolin-1-ylsulfonyl)-N-(p-tolyl)benzamide]: 60%; `COc1ccc(NC(=O)c2cccc(S(=O)(=O)N3c4ccccc4CC3C)c2)cc1OC` (centres unmarked) [I-449, N-(3,4-dimethoxyphenyl)-3-((2-methylindolin-1-yl)sulfonyl)benzamide]: 61%. Next, `COc1ccc(NC(=O)c2cccc(NS(=O)(=O)c3cc(Cl)ccc3Cl)c2)cn1` [I-654, 3-((2,5-dichlorophenyl)sulfonamido)-N-(6-methoxypyridin-3-yl)benzamide]: 42%. Next, `N#Cc1ccc(NC(=O)c2ccc(Cl)c(S(=O)(=O)N3CCc4ccccc43)c2)cc1` [I-557, 4-chloro-N-(4-cyanophenyl)-3-(indolin-1-ylsulfonyl)benzamide]: 52%; `Cc1cnc(NC(=O)c2cccc(NS(=O)(=O)c3ccc(Cl)c(Cl)c3)c2)[nH]1` [I-633, 3-((3,4-dichlorophenyl)sulfonamido)-N-(5-methyl-1H-imidazol-2-yl)benzamide]: 60%.

For `CN(c1ccccc1)S(=O)(=O)c1ccccc1C(=O)Nc1ccc2c(c1)OCO2` [I-351, N-(benzo[d][1,3]dioxol-5-yl)-2-(N-methyl-N-phenylsulfamoyl)benzamide], the “% Inhibition of Apyrase” value is 53%.

Turning to `N#Cc1cccc(NC(=O)c2ccc(S(=O)(=O)Nc3ccccc3Cl)cc2)c1` [I-202, 4-(N-(2-chlorophenyl)sulfamoyl)-N-(3-cyanophenyl)benzamide], the “% Inhibition of Apyrase” value amounted to 78%. Next, `O=C(Nc1ccccc1NS(=O)(=O)c1cccs1)c1ccc(C(F)(F)F)cc1` [I-836, N-(2-(thiophene-2-sulfonamido)phenyl)-4-(trifluoromethyl)benzamide]: 49%.

Values taken from US12685312B2, “Sulfonamide apyrase inhibitors” (Texas Crop Science, Inc., priority 2022, dated 2026).
